Assay results taken from patent publication US20020016346A1, “Method for enhancing outflow of aqueous humor in treatment of glaucoma” (The Regents University of California, a California …, priority 1994, published 2002).

How the values were obtained:
[1] = target: T1, Na—K—Cl cotransport (Bos taurus, UniProt F1MS08); assay: K influx (86Rb) in bovine TM cell monolayers; assay type: cell-based; settings: bovine TM cells
T1 sequence (F1MS08 1-1204): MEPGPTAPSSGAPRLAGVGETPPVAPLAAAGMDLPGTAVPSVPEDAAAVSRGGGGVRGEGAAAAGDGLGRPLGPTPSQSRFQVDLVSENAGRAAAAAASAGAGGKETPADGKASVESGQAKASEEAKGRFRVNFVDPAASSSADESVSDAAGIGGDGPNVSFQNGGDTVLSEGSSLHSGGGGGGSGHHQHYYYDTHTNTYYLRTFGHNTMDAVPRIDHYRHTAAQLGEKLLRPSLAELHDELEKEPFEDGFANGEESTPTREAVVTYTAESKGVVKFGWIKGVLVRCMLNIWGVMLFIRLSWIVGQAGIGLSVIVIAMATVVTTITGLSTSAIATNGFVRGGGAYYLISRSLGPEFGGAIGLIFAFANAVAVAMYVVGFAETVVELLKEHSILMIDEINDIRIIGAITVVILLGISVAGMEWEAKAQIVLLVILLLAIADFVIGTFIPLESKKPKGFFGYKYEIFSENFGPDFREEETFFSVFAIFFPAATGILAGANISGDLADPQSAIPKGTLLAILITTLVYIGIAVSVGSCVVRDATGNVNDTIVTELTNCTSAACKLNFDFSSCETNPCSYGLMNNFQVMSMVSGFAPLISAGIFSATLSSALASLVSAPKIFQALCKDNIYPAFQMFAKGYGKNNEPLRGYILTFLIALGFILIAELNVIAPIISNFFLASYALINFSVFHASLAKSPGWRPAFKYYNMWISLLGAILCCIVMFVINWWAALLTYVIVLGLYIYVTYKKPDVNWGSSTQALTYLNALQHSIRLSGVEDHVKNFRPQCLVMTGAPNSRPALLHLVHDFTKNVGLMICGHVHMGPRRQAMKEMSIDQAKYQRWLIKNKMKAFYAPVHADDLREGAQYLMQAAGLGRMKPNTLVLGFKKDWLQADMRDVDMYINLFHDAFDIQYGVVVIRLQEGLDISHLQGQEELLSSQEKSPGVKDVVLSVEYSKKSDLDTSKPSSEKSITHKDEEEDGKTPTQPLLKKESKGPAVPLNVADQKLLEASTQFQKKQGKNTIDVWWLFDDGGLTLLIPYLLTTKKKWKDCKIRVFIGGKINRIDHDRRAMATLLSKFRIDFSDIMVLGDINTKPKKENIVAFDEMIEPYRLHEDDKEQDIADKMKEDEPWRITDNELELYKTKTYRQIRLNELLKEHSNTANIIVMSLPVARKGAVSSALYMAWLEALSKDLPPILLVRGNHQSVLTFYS
Experimental: (§1) Details of this method have been published previously (O'Donnell, M. E., supra, 1989). Briefly, bovine or human TM cell monolayers on 24 well plates were equilibrated for 10 minutes at 37° C. in a Hepes-buffered minimal essential medium (MEM) containing (in mM): 144 Na, 147 Cl, 5.8 K, 1.2 Ca, 4.2 HCO3, 0.4 H2PO4, […], 0.4 SO4, 5.6 glucose and 20 Hepes. […] The assay medium also contained ^86Rb (1 μCi/ml) (Dupont New England Nuclear, Boston, Mass.). The assay was terminated by rinsing the wells with ice-cold isotonic MgCl2, then extracting the contents with 0.2% sodium dodecyl sulfate (SDS), and determining the amount of radioactive contents by liquid scintillation. Osmolarities of all preincubation and assay media were verified by osmometry (Model 3W2, Advanced Instruments, Norwood, Mass.).
The effects of hormones, neurotransmitters and second messengers on Bumetanide-sensitive K influx of bovine trabecular meshwork cells were assessed using the procedures of Example 1. […] The control is the Hepes-buffered medium containing Na, K, Cl, CA and other ions as described in Example 1B. […] The data represent the mean values±SEM of quadruplicate determinations from two experiments.

[2] = tested on: eye of a rabbit; assay: Intra-ocular pressure in rabbits after subconjunctival injection; assay type: in vivo
Experimental: Male albino New Zealand rabbits weighing≧2 Kg were used for in vivo experiments performed under various active animal use protocols approved by the Institutional Animal Care and Use Committee at UC Davis. Animals were sedated with an intravenous dose of Napentabarbitol, 1-2 mg/Kg to permit their handling and frequent measurement of intra-ocular pressure (IOP). Topical anesthesia consisting of Proparacaine HCl (Alcaine™) was used for IOP measurements. A pneumatonometer (Mentor O & O Classic Model 30 Penumatonometer™, Norwell, Mass.) calibrated to a known (25 mmHg) pressure prior to each experiment was used for all IOP measurements. This model of Pneumatonometer provides a readout of standard deviation of each measurement; only measurements with a standard deviation of≦1 mmHg were accepted and most were less than 0.5 mmHg. Following sedation, IOP measurements were carried out over at least 30 minutes to assure that a stable baseline IOP was present.
Drugs and/or vehicle was administered to one eye of each animal via subconjunctival injection in order to bypass any barriers to drug penetration, such as an intact corneal and conjunctival epithelium and to achieve rapid and high concentrations of drug, bypassing epithelial barriers. The contralateral eye treated only with vehicle served as a control for each animal. Two syringes were prepared for each experiment, one containing drug and vehicle, the other containing only vehicle. […] Injections raised a prominent bleb, confirming subconjunctival placement of the drug or vehicle. This bleb then smoothed out over about ten minutes, indicating diffusion of the drug or vehicle throughout the subconjunctival space.
Measurements of intra-ocular pressure were taken at various intervals following the subconjunctival administration of the drug and/or vehicle. IOP in both eyes fluctuated over time reflecting the level of anesthesia. During the course of the experiment, the animal handlers and investigators were masked as to which eve had received the drug or control injection.

[3] = tested on: bovine TM cells; assay: TM cell volume by electronic cell sizing (Coulter Counter); assay type: cell-based; settings: 30 minute exposure; bumetanide 10 μM, ethacrynic acid 1 mM; versus Hepes MEM control
Experimental: By the second method, TM cells were trypsinized briefly in Ca-free medium, then rinsed with medium containing trypsin inhibitor and suspended in Hepes MEM. Mean cell volumes were then analyzed by electronic cell sizing on a Coulter Counter™ […] (Model ZM), with channelizer (C256), using at least 50,000 cells per data point and an orifice diameter of 140 μm. Aliquots of suspended cells were diluted into Hepes MEM containing the tonicity and/or agents to be evaluated. Mean cell volumes of each suspension aliquot were followed over time, starting at 1 minute after addition of cells to the assay media. Cell suspensions were maintained at 37° C. throughout the assay period. Absolute volumes (picoliters/cell) were calculated from distribution curves of cell diameter, using a standard curve generated by polystyrene latex beads of known diameter.
In order to determine whether the Na—K—Cl cotransporter of TM cells may play a role in restoration of intracellular volume following hypertonicity-induced cell shrinkage, we evaluated the effect of hypertonicity on TM cell volume and Na^+—K^+—2Cl^− cotransport activity. […] The intracellular volume of the cells then increased over a slower time course, with volume recovering to approximately 84% by 33 minutes as shown in FIG. 3A.

[4] = target: T2, Na—K—Cl cotransport (Homo sapiens, UniProt P55011); assay: K influx (86Rb) in human TM cell monolayers; assay type: cell-based; settings: human TM cells, 1 mM ethacrynic acid
T2 construct: bovine or human TM cell monolayers on 24 well plates; endogenous in cells; host or cells: primary cultured human trabecular meshwork cells
T2 sequence (P55011 1-1212): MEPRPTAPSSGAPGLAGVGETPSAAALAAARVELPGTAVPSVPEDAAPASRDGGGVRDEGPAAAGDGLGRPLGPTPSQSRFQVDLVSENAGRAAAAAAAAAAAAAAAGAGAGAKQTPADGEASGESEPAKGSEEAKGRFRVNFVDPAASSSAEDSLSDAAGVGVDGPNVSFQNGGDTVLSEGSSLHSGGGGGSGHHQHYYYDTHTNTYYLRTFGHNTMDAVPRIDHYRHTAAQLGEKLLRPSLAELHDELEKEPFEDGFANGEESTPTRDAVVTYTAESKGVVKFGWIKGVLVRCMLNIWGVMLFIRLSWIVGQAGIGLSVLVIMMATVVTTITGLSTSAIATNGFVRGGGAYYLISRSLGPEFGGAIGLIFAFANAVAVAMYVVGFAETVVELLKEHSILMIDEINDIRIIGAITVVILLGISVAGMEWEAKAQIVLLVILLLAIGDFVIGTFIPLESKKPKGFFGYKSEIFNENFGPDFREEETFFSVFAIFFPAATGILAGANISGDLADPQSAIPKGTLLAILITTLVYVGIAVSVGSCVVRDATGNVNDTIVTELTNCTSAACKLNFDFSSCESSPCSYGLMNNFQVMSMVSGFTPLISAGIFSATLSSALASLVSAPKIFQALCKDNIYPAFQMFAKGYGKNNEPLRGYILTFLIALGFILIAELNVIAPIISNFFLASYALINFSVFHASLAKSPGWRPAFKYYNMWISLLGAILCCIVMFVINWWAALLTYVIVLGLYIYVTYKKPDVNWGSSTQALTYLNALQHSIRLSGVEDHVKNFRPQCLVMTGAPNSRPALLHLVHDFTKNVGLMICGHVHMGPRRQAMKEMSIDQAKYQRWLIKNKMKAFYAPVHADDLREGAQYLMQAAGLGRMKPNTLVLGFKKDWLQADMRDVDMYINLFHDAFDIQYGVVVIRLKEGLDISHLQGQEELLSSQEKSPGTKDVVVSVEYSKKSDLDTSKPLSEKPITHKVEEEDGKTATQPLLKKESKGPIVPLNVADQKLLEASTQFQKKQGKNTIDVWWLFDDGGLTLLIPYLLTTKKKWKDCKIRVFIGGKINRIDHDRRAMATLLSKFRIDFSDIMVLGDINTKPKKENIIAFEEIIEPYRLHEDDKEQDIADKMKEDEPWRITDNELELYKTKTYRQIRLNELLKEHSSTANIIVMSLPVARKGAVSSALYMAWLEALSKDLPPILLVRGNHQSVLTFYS
Experimental: as §1

[5] = VP 100 nM, NE 10 μM, Ach 1 μM, cAMP 50 μM, cGMP 50 μM, A23187 1 μM, PMA 10 nM, Ca-free medium plus 5 μM BAPTA-AM, control 25.6 ± 0.71

CCCCCCCCCCCCCC(=O)O[C@@H]1[C@@H](C)[C@@]2(O)[C@@H](C=C(CO)C[C@]3(O)C(=O)C(C)=C[C@@H]23)[C@@H]2C(C)(C)[C@]12OC(C)=O [PMA, phorbol 12-myristate 13-acetate]
BUMETANIDE-SENSITIVE K INFLUX [1, 5]: 34.0 ± 1.33 μmol/g protein/min

NC(=O)CC[C@@H]1NC(=O)[C@H](Cc2ccccc2)NC(=O)[C@H](Cc2ccc(O)cc2)NC(=O)[C@@H](N)CSSC[C@@H](C(=O)N2CCC[C@H]2C(=O)N[C@@H](CCCN=C(N)N)C(=O)NCC(N)=O)NC(=O)[C@H](CC(N)=O)NC1=O [VP, vasopressin]
BUMETANIDE-SENSITIVE K INFLUX [1, 5]: 40.4 ± 1.05 μmol/g protein/min

NS(=O)(=O)c1cc(C(=O)O)cc(NCc2ccccc2)c1Oc1ccccc1 [benzmetanide]
time after which significant reduction of IOP was observed ([2]; 0.1 cc of 7.5 μM benzmetanide subconjunctival): 15 min
decrease in IOP ([2]; 0.1 cc of 7.5 μM benzmetanide subconjunctival, after 50 minutes, relative to contralateral control eye): 24%

Nc1nc2c(nc(Br)n2[C@@H]2O[C@@H]3COP(=O)(O)O[C@H]3[C@H]2O)c(=O)[nH]1 [cGMP, 8-bromo-cyclic GMP]
BUMETANIDE-SENSITIVE K INFLUX [1, 5]: 19.7 ± 0.74 μmol/g protein/min

C=C(CC)C(=O)c1ccc(OCC(=O)O)c(Cl)c1Cl [ethacrynic acid]
intracellular volume [3]: significant reduction
BUMETANIDE-SENSITIVE K INFLUX ([1]; 1 mM ethacrynic acid): abolished
BUMETANIDE-SENSITIVE K INFLUX [4]: abolished

NS(=O)(=O)c1cc(C(=O)O)c(NCc2ccco2)cc1Cl [furosemide]
time after injection of significant drop in relative IOP ([2]; 0.1 cc of 100 μM furosemide subconjunctival): 25 min
maximal inhibition (relative IOP) ([2]; 0.1 cc of 100 μM furosemide subconjunctival, experiment ended at 45 minutes): 12.4%

Cc1cccc(Nc2ccncc2S(=O)(=O)NC(=O)NC(C)C)c1 [torasemide]
IOP-lowering effect ([2]; 0.1 cc of 1 μM torasemide subconjunctival): time coarse and magnitude similar to that seen with bumetanide
average IOP lowering effect ([2]; average of two experiments, FIG. 6): over 20%
